Measurements as given in patent publication US20250275540A1, “USE OF PROTOPORPHYRINOGEN OXIDASE” (BEIJING DABEINONG BIOTECHNOLOGY CO., LTD., priority 2022, published 2025).

Tested on: transgenic maize plants
Experiment: Detection of the herbicide tolerance of the transgenic maize plants
Type: in vivo
Details: for The grade of pesticide damage/plant: 0 / The grade of pesticide damage/plant: 1 / The grade of pesticide damage/plant: 2 / The grade of pesticide damage/plant: 3: 7 DAT
Description: The transformed Arabidopsis thaliana T1 plants were initially selected using glufosinate herbicide. The Arabidopsis thaliana T1 plants (PPOA-01) into which the PPOA-01 nucleotide sequence was introduced, the Arabidopsis thaliana T1 plants (PPOB-01) into which the PPOB-01 nucleotide sequence was introduced, the Arabidopsis thaliana T1 plants (PPOC-01) into which the PPOC-01 nucleotide sequence was introduced, the Arabidopsis thaliana T1 plants (PPOD-01) into which the PPOD-01 nucleotide sequence was introduced, the Arabidopsis thaliana T1 plants (PPOE-01) into which the PPOE-01 nucleotide sequence was introduced, the Arabidopsis thaliana T1 plants (PPOF-01) into which the PPOF-01 nucleotide sequence was introduced, the Arabidopsis thaliana T1 plants (PPO-AP-01) into which the PPO-AP-01 nucleotide sequence was introduced, and the Arabidopsis thaliana T1 plants (control vector) into which the control vector was introduced, the wild-type Arabidopsis thaliana plants (CK) (with 24 plants being included in each genotype) (18 days after sowing) were sprayed with saflufenacil at three concentrations (25 g ai/ha (one-fold field concentration, 1×), 100 g ai/ha (four-fold field concentration, 4×), and 0 g ai/ha (water, 0×)), oxyfluorfen at three concentrations (180 g ai/ha (one-fold field concentration, 1×), 720 g ai/ha (four-fold field concentration, 4×), and 0 g ai/ha (water, 0×)), and flumioxazin at three concentrations (60 g ai/ha (one-fold field concentration, 1×), 240 g ai/ha (four-fold field concentration, 4×), and 0 g ai/ha (water, 0×) to determine the tolerance of Arabidopsis thaliana to the herbicides. After 7 days of spraying (7 DAT), the damage level of each plant caused by the herbicide was evaluated according to the average of the damage levels (%) of plants (the average of the damage levels (%) of plants=the injured leaf area/the total leaf area×100%), i.e., the grade of pesticide damage: grade 0 means that the growth status of plants is essentially consistent with those sprayed with the blank solvent (water); grade 1 means that the average of the damage levels of plants is less than 10%; grade 2 means that the average of the damage levels of plants is greater than 10%; and grade 3 means that the average of the damage levels of plants is 100%. The plants having a growth status falling within grades 0 and 1 are classified as highly resistant plants; those having a growth status falling within grade 2 are classified as poorly resistant plants; and those having a growth status falling within grade 3 are classified as non-resistant plants.
The maize plants into which the PPOA-02 nucleotide sequence was introduced, the maize plants into which the PPOB-02 nucleotide sequence was introduced, the maize plants into which the PPOC-02 nucleotide sequence was introduced, the maize plants into which the PPOD-02 nucleotide sequence was introduced, the maize plants into which the PPOE-02 nucleotide sequence was introduced, the maize plants into which the PPOF-02 nucleotide sequence was introduced, the maize plants into which the PPO-AP-02 nucleotide sequence was introduced, the maize plants (control vector) into which the control vector was introduced, and the wild-type maize plants (CK) (with 16 plants being included in each genotype) (18 days after sowing) were taken and sprayed with saflufenacil at three concentrations (50 g ai/ha (two-fold field concentration, 2×), 100 g ai/ha (four-fold field concentration, 4×), and 0 g ai/ha (water, 0×)), oxyfluorfen at three concentrations (360 g ai/ha (two-fold field concentration, 2×), 720 g ai/ha (four-fold field concentration, 4×), and 0 g ai/ha (water, 0×), and flumioxazin at three concentrations (120 g ai/ha (two-fold field concentration, 2×), 240 g ai/ha (four-fold field concentration, 4×), and 0 g ai/ha (water, 0×) to determine the tolerance of maize plants to the herbicides. […]

[1] = genotype Control vector, 360 g ai/ha
[2] = genotype Control vector, 720 g ai/ha
[3] = genotype PPO-AP-02, 360 g ai/ha
[4] = genotype PPO-AP-02, 720 g ai/ha

In the case of `CCOc1cc(Oc2ccc(C(F)(F)F)cc2Cl)ccc1[N+](=O)[O-]` [oxyfluorfen, 2-chloro-1-(3-ethoxy-4-nitrophenoxy)-4-trifluoromethylbenzene], the “The grade of pesticide damage/plant: 0” value (genotype CK, 360 g ai/ha) is reported as 0 plant, the “The grade of pesticide damage/plant: 1” value (genotype CK, 360 g ai/ha) is reported as 0 plant and the “The grade of pesticide damage/plant: 2” value (genotype CK, 360 g ai/ha) is reported as 0 plant. The “The grade of pesticide damage/plant: 3” value (genotype CK, 360 g ai/ha) was 16 plant, the “The grade of pesticide damage/plant: 0” value (genotype CK, 720 g ai/ha) was 0 plant and the “The grade of pesticide damage/plant: 1” value (genotype CK, 720 g ai/ha) was 0 plant. For the same compound, the “The grade of pesticide damage/plant: 2” value (genotype CK, 720 g ai/ha) was 0 plant, the “The grade of pesticide damage/plant: 3” value (genotype CK, 720 g ai/ha) was 16 plant and the “The grade of pesticide damage/plant: 0” value [1] was 0 plant. For the same compound, the “The grade of pesticide damage/plant: 1” value [1] was 0 plant, the “The grade of pesticide damage/plant: 2” value [1] was 0 plant and the “The grade of pesticide damage/plant: 3” value [1] was 16 plant. For the same compound, the “The grade of pesticide damage/plant: 0” value [2] was 0 plant, the “The grade of pesticide damage/plant: 1” value [2] was 0 plant and the “The grade of pesticide damage/plant: 2” value [2] was 0 plant. The “The grade of pesticide damage/plant: 3” value [2] was 16 plant, the “The grade of pesticide damage/plant: 0” value [3] was 0 plant and the “The grade of pesticide damage/plant: 1” value [3] was 0 plant. For the same compound, the “The grade of pesticide damage/plant: 2” value [3] was 8 plant, the “The grade of pesticide damage/plant: 3” value [3] was 8 plant and the “The grade of pesticide damage/plant: 0” value [4] was 0 plant. For the same compound, the “The grade of pesticide damage/plant: 1” value [4] was 0 plant, the “The grade of pesticide damage/plant: 2” value [4] was 0 plant and the “The grade of pesticide damage/plant: 3” value [4] was 16 plant. The “tolerance to the herbicide (in words)” value (genotype PPO-AP-02, four-fold field concentration) was “no tolerance”, the “share of the plants that exhibited no tolerance” value (genotype PPO-AP-02, two-fold field concentration) was “about 50%” and the “The grade of pesticide damage/plant: 0” value (genotype PPOA-02, 360 g ai/ha) was 16 plant. The “The grade of pesticide damage/plant: 1” value (genotype PPOA-02, 360 g ai/ha) was 0 plant, the “The grade of pesticide damage/plant: 2” value (genotype PPOA-02, 360 g ai/ha) was 0 plant and the “The grade of pesticide damage/plant: 3” value (genotype PPOA-02, 360 g ai/ha) was 0 plant. For the same compound, the “The grade of pesticide damage/plant: 0” value (genotype PPOA-02, 720 g ai/ha) was 16 plant, the “The grade of pesticide damage/plant: 1” value (genotype PPOA-02, 720 g ai/ha) was 0 plant and the “The grade of pesticide damage/plant: 2” value (genotype PPOA-02, 720 g ai/ha) was 0 plant. For the same compound, the “The grade of pesticide damage/plant: 3” value (genotype PPOA-02, 720 g ai/ha) was 0 plant, the “The grade of pesticide damage/plant: 0” value (genotype PPOB-02, 360 g ai/ha) was 16 plant and the “The grade of pesticide damage/plant: 1” value (genotype PPOB-02, 360 g ai/ha) was 0 plant. For the same compound, the “The grade of pesticide damage/plant: 2” value (genotype PPOB-02, 360 g ai/ha) was 0 plant, the “The grade of pesticide damage/plant: 3” value (genotype PPOB-02, 360 g ai/ha) was 0 plant and the “The grade of pesticide damage/plant: 0” value (genotype PPOB-02, 720 g ai/ha) was 16 plant. For the same compound, the “The grade of pesticide damage/plant: 1” value (genotype PPOB-02, 720 g ai/ha) was 0 plant, the “The grade of pesticide damage/plant: 2” value (genotype PPOB-02, 720 g ai/ha) was 0 plant and the “The grade of pesticide damage/plant: 3” value (genotype PPOB-02, 720 g ai/ha) was 0 plant. For the same compound, the “The grade of pesticide damage/plant: 0” value (genotype PPOC-02, 360 g ai/ha) was 16 plant, the “The grade of pesticide damage/plant: 1” value (genotype PPOC-02, 360 g ai/ha) was 0 plant and the “The grade of pesticide damage/plant: 2” value (genotype PPOC-02, 360 g ai/ha) was 0 plant. The “The grade of pesticide damage/plant: 3” value (genotype PPOC-02, 360 g ai/ha) was 0 plant, the “The grade of pesticide damage/plant: 0” value (genotype PPOC-02, 720 g ai/ha) was 16 plant and the “The grade of pesticide damage/plant: 1” value (genotype PPOC-02, 720 g ai/ha) was 0 plant. For the same compound, the “The grade of pesticide damage/plant: 2” value (genotype PPOC-02, 720 g ai/ha) was 0 plant, the “The grade of pesticide damage/plant: 3” value (genotype PPOC-02, 720 g ai/ha) was 0 plant and the “The grade of pesticide damage/plant: 0” value (genotype PPOD-02, 360 g ai/ha) was 16 plant. The “The grade of pesticide damage/plant: 1” value (genotype PPOD-02, 360 g ai/ha) was 0 plant, the “The grade of pesticide damage/plant: 2” value (genotype PPOD-02, 360 g ai/ha) was 0 plant and the “The grade of pesticide damage/plant: 3” value (genotype PPOD-02, 360 g ai/ha) was 0 plant. For the same compound, the “The grade of pesticide damage/plant: 0” value (genotype PPOD-02, 720 g ai/ha) was 16 plant, the “The grade of pesticide damage/plant: 1” value (genotype PPOD-02, 720 g ai/ha) was 0 plant and the “The grade of pesticide damage/plant: 2” value (genotype PPOD-02, 720 g ai/ha) was 0 plant. For the same compound, the “The grade of pesticide damage/plant: 3” value (genotype PPOD-02, 720 g ai/ha) was 0 plant, the “The grade of pesticide damage/plant: 0” value (genotype PPOE-02, 360 g ai/ha) was 16 plant and the “The grade of pesticide damage/plant: 1” value (genotype PPOE-02, 360 g ai/ha) was 0 plant. The “The grade of pesticide damage/plant: 2” value (genotype PPOE-02, 360 g ai/ha) was 0 plant, the “The grade of pesticide damage/plant: 3” value (genotype PPOE-02, 360 g ai/ha) was 0 plant and the “The grade of pesticide damage/plant: 0” value (genotype PPOE-02, 720 g ai/ha) was 15 plant. For the same compound, the “The grade of pesticide damage/plant: 1” value (genotype PPOE-02, 720 g ai/ha) was 1 plant, the “The grade of pesticide damage/plant: 2” value (genotype PPOE-02, 720 g ai/ha) was 0 plant and the “The grade of pesticide damage/plant: 3” value (genotype PPOE-02, 720 g ai/ha) was 0 plant. The “The grade of pesticide damage/plant: 0” value (genotype PPOF-02, 360 g ai/ha) was 16 plant, the “The grade of pesticide damage/plant: 1” value (genotype PPOF-02, 360 g ai/ha) was 0 plant and the “The grade of pesticide damage/plant: 2” value (genotype PPOF-02, 360 g ai/ha) was 0 plant. For the same compound, the “The grade of pesticide damage/plant: 3” value (genotype PPOF-02, 360 g ai/ha) was 0 plant, the “The grade of pesticide damage/plant: 0” value (genotype PPOF-02, 720 g ai/ha) was 16 plant and the “The grade of pesticide damage/plant: 1” value (genotype PPOF-02, 720 g ai/ha) was 0 plant. For the same compound, the “The grade of pesticide damage/plant: 2” value (genotype PPOF-02, 720 g ai/ha) was 0 plant, the “The grade of pesticide damage/plant: 3” value (genotype PPOF-02, 720 g ai/ha) was 0 plant and the “tolerance to the herbicide (in words)” value (genotypes PPOA-02 to PPOF-02, four-fold field concentration) was “high-resistant tolerance”. The “tolerance to the herbicide (in words)” value (genotypes PPOA-02 to PPOF-02, two-fold field concentration) was “high-resistant tolerance”.
